Measured values taken from patent US11058661B2, “Compositions and methods for lowering triglycerides in a subject on concomitant statin therapy and having hsCRP levels of at least about 2 mg/L” (priority 2018, dated 2021).

Legend:
[1] = tested on: statin-treated patients with fasting TG ≥200 and <500 mg/dL and baseline hsCRP ≥2.0 mg/L; experiment: ANCHOR post-hoc subgroup: lipid parameters, lipoproteins, markers of oxidation and inflammation; type: in vivo, human; details: for reduction of TG compared with placebo: printed as a reduction
Procedure: A multi-center, placebo-controlled, randomized, double-blind, 12-week study is performed to evaluate the efficacy and safety of >96% E-EPA in patients with fasting triglyceride levels ≥200 mg/dl and <500 mg/dl despite statin therapy (the mean of two qualifying entry values needs to be ≥185 mg/dl and at least one of the values needs to be ≥200 mg/dl). The primary objective of the study is to determine the efficacy of >96% E-EPA 2 g daily and 4 g daily, compared to placebo, in lowering fasting TG levels in patients with high risk for cardiovascular disease and with fasting TG levels ≥200 mg/dL and <500 mg/dL, despite treatment to LDL-C goal on statin therapy.
The population for this study is men and women >18 years of age with a body mass index ≤45 kg/m^2 with fasting TG levels greater than or equal to 200 mg/dl and less than 500 mg/dl and on a stable does of statin therapy (with or without ezetimibe). The statin must be atorvastatin, rosuvastatin or simvastatin. The dose of statin must be stable for ≥4 weeks prior to the LDL-C/TG baseline qualifying measurement for randomization. The statin dose will be optimal such that the patients are at their LDL-C goal at the LDL-C/TG baseline qualifying measurements. The same statin at the same dose will be continued until the study ends.
At the end of the 4-week diet and lifestyle stabilization period or the 6-week diet and stabilization and washout period, eligible patients will enter the 2-week LDL-C and TG qualifying period and will have their fasting LDL-C and TG levels measured at Visit 2 (Week-2) and Visit 3 (Week-1). Eligible patients must have an average fasting LDL-C level ≥40 mg/dL and <100 mg/dL and an average fasting TG level ≥200 mg/dL and <500 mg/dL to enter the 12-week double-blind treatment period. The LDL-C and TG levels for qualification will be based on the average (arithmetic mean) of the Visit 2 (Week-2) and Visit 3 (Week-1) values. If a patient's average LDL-C and/or TG levels from Visit 2 and Visit 3 fall outside the required range for entry into the study, an additional fasting lipid profile can be collected 1 week later at Visit 3.1. If a third sample is collected at Visit 3.1, entry into the study will be based on the average (arithmetic mean) of the values from Visit 3 and Visit 3.1.
After confirmation of qualifying fasting LDL-C and TG values, eligible patients will enter a 12-week, randomized, double-blind treatment period. At Visit 4 (Week 0), patients will be randomly assigned to 1 of the following treatment groups: • >96% E-EPA 2 g daily, • >96% E-EPA 4 g daily, or • Placebo.
>96% E-EPA is provided in 1 g liquid-filled, oblong, gelatin capsules. The matching placebo capsule is filled with light liquid paraffin and contains 0 g of >96% E-EPA. >96% E-EPA capsules are to be taken with food (i.e. with or at the end of a meal).
During the double-blind treatment period, patients will take 2 capsules (>96% E-EPA or matching placebo) in the morning and 2 capsules in the evening for a total of 4 capsules per day. • Patients in the >96% E-EPA 2 g/day treatment group will receive 1>96% E-EPA 1 g capsule and 1 matching placebo capsule in the morning and in the evening. • Patients in the >96% E-EPA 4 g/day treatment group will receive 2>96% E-EPA 1 g capsules in the morning and evening.
For TG, TC, HDL-C, LDL-C, calculated non-HDL-C, and VLDL-C, baseline will be defined as the average of Visit 4 (Week 0) and the preceding lipid qualifying visit (either Visit 3 [Week-1] or if it occurs, Visit 3.1) measurements. Baseline for all other efficacy parameters will be the Visit 4 (Week 0) measurement.
For TG, TC, HDL-C, LDL-C, calculated non-HDL-C, and VLDL-C, Week 12 endpoint will be defined as the average of Visit 6 (Week 11) and Visit 7 (Week 12) measurements.
Week 12 endpoint for all other efficacy parameters will be the Visit 7 (Week 12) measurement. […]

[2] = tested on: patients with baseline hsCRP ≥2.0 mg/L (safety population); experiment: ANCHOR post-hoc subgroup: treatment-emergent adverse events; type: in vivo, human
Description: The evaluation of safety included monitoring of treatment-emergent adverse events (TEAEs), defined as any AEs that began after the first dose of study medication or that worsened in severity during the double-blind treatment period. TEAEs reported herein included total TEAEs and those occurring in 3% […] of patients in any treatment group of the overall ANCHOR study population (i.e., nausea, diarrhea, nasopharyngitis, and arthralgia). The median difference in percent change from baseline between 4 g per day EPA-E and placebo groups for the primary efficacy variable and additional assessments were estimated with the Hodges-Lehmann method (P values from the Wilcoxon rank-sum test for treatment comparisons) where departures from normality were observed; for normally distributed parameters, an ANCOVA model was used with least square means (LS) and standard error (SE). Missing values were imputed using the last-observation-carried-forward method. For all post hoc analyses, the alpha level for statistical significance was 0.05. Safety analyses were based on the safety population (all randomized patients who received at least one dose of the study drug).

[3] = 4 g/day vs placebo, baseline to week 12, Hodges-Lehmann median
[4] = 4 g/day vs placebo, baseline to week 12, Hodges-Lehmann median, listed as EPA-E
[5] = 4 g/day, baseline to week 12, median

## CC/C=C\C/C=C\C/C=C\C/C=C\C/C=C\CCCC(=O)OCC [Icosapent Ethyl, ethyl eicosapentaenoate]
[1]; [3]
  Apo B Median Difference in % Change From Baseline vs Placebo: −7.4%
  Apo C-III Median Difference in % Change From Baseline vs Placebo: −16.0%
  HDL-C Median Difference in % Change From Baseline vs Placebo: −5.2%
  ICAM-1 Median Difference in % Change From Baseline vs Placebo: +1.1%
  IL-6 Median Difference in % Change From Baseline vs Placebo: −4.2%
  LDL-C Median Difference in % Change From Baseline vs Placebo: −5.0%
  Lp-PLA2 Median Difference in % Change From Baseline vs Placebo: −19.6%
  RLP-C Median Difference in % Change From Baseline vs Placebo: −23.0%
  TC Median Difference in % Change From Baseline vs Placebo: −11.1%
  TG Median Difference in % Change From Baseline vs Placebo: −19.9%
  VLDL-C Median Difference in % Change From Baseline vs Placebo: −21.0%
  VLDL-TG Median Difference in % Change From Baseline vs Placebo: −22.9%
[1]; [4]
  Apo C-III Median Difference in % Change From Baseline vs Placebo: −16%
  TG Median Difference in % Change From Baseline vs Placebo: −20%
  hsCRP Median Difference in % Change From Baseline vs Placebo: −17.9%
[1]; [5]
  Apo B Change From Baseline, %: −0.5%
  Apo C-III Change From Baseline, %: −7.7%
  HDL-C Change From Baseline, %: −2.1%
  ICAM-1 Change From Baseline, %: +3.3%
  IL-6 Change From Baseline, %: −1.6%
  LDL-C Change From Baseline, %: +2.8%
  Lp-PLA2 Change From Baseline, %: −13.3%
  Non-HDL-C Change From Baseline, %: −4.5%
  Ox-LDL Change From Baseline, %: −2.9%
  RLP-C Change From Baseline, %: −26.3%
  TC Change From Baseline, %: −2.6%
  VLDL-C Change From Baseline, %: −11.8%
  hsCRP Change From Baseline, %: −10.5%
  reduction of TG compared with placebo: 19.9%
[1]; 4 g/day, baseline to week 12, median, listed as EPA-E
  reduction of TG compared with placebo: about 19.9%
[1]; 4 g/day, week 12, median
  Apo B End of Treatment: 93.5 mg/dL
  Apo C-III End of Treatment: 14.0 mg/dL
  Apo C-III End of Treatment (Table 3): 14 mg/dL
  HDL-C End of Treatment: 36.0 mg/dL
  ICAM-1 End of Treatment: 300.5 ng/mL
  IL-6 End of Treatment: 2.8 pg/mL
  LDL-C End of Treatment: 83.5 mg/dL
  Lp-PLA2 End of Treatment: 163.0 ng/mL
  Non-HDL-C End of Treatment: 125.0 mg/dL
  Ox-LDL End of Treatment: 54.1 U/L
  TC End of Treatment: 166.0 mg/dL
  VLDL-C End of Treatment: 38.0 mg/dL
  VLDL-TG End of Treatment: 154.5 mg/dL
  hsCRP End of Treatment: 3.7 mg/L
[1]; 4 g/day, week 12, median, fasting
  TG End of Treatment: 220.8 mg/dL
[2]; 4 g per day
  patients with arthralgia: 2.3%
  patients with diarrhea: 3.8%
  patients with nasopharyngitis: 0.8%
  patients with nausea: 2.3%
[2]; 4 g per day, 60 of 131
  patients with TEAEs (irrespective of causality): 45.8%
[2]; 4 g per day, subarachnoid hemorrhage, ruptured cerebral aneurysm, brain edema, not considered related
  patients discontinued due to an AE: One
[2]; 4 g/day, n = 131
  Patients With TEAEs: Any TEAE: 60 (45.8) n (%)
  Patients With TEAEs: Arthralgia: 3 (2.3) n (%)
  Patients With TEAEs: Diarrhea: 5 (3.8) n (%)
  Patients With TEAEs: Nasopharyngitis: 1 (0.8) n (%)
  Patients With TEAEs: Nausea: 3 (2.3) n (%)
